# Reference: PubChem BioAssay (NCI)
#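 Values below derive from 48-hour exposures of cells grown in 96-well plates, with endpoints linearly interpolated between the two concentrations bracketing the appropriate inhibition level. TGI denotes the concentration required for complete inhibition of growth.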
# Assays:
# Assay in all cases: NCI anticancer screen, dose series, 48 h
# 786-0 renal = tested on: 786-0 renal
# EKVX NSCLC = tested on: EKVX NSCLC
# HCC-2998 colon = tested on: HCC-2998 colon
# HOP-92 NSCLC = tested on: HOP-92 NSCLC
# KM12 colon = tested on: KM12 colon
# MALME-3M melanoma = tested on: MALME-3M melanoma
# OVCAR-4 ovarian = tested on: OVCAR-4 ovarian
# SK-MEL-2 melanoma = tested on: SK-MEL-2 melanoma
# SK-OV-3 ovarian = tested on: SK-OV-3 ovarian
# T-47D breast = tested on: T-47D breast
# UACC-62 melanoma = tested on: UACC-62 melanoma
SMILES,TGI (786-0 renal) [µM],TGI (EKVX NSCLC) [µM],TGI (HCC-2998 colon) [µM],TGI (HOP-92 NSCLC) [µM],TGI (KM12 colon) [µM],TGI (MALME-3M melanoma) [µM],TGI (OVCAR-4 ovarian) [µM],TGI (SK-MEL-2 melanoma) [µM],TGI (SK-OV-3 ovarian) [µM],TGI (T-47D breast) [µM],TGI (UACC-62 melanoma) [µM]
CC1=CC(C)C/C=C/C2C3OC3(C)C(C)C3C(Cc4c[nH]c5ccccc45)NC(=O)C23C(=O)C=CC(=O)C1O (stereo unspecified),10.8,14.7,21.7,3.13,30,4.19,24.3,34.6,25.2,3.76,29.1
CCCCCCCCCC1(N=[N+]=[N-])C(=O)c2ccccc2N(C)C1=O (stereo unspecified),> 100,–,96.2,53.3,> 100,70.2,> 100,69,> 100,9.17,80.5
CC(C)CC1C(=O)NCCC(NC(=O)C(Cc2ccc(OC(C)(C)C)cc2)NC(=O)OC(C)(C)C)C(=O)NC(Cc2ccccc2)C(=O)NC(Cc2ccccc2)NC1=O (stereo unspecified),4.92,39.1,35.4,32.1,> 100,32,34.6,–,45.9,22.2,31.1
O=C1C2CC=CCC2C(=O)N1n1c(Cc2ccc(Cl)cc2)n[nH]c1=O (stereo unspecified),> 100,> 100,> 100,> 100,> 100,> 100,> 100,> 100,> 100,> 100,> 100
O=C(O)CC(CC(=O)O)C(=O)O,> 100,> 100,> 100,> 100,> 100,> 100,> 100,> 100,> 100,> 100,> 100
O=C(O)CC1NC(/C(=C/c2ccccc2)NC(=O)c2ccccc2)OC1=O (stereo unspecified),> 100,> 100,> 100,> 100,34.1,> 100,> 100,66.6,> 100,> 100,57.9
CN(C(=O)C1=CCC2(CC1)OCCO2)c1ccccc1OS(=O)(=O)C(F)(F)F,> 100,> 100,> 100,> 100,> 100,–,> 100,> 100,> 100,> 100,> 100
OC1[C@@H]2[C@@H](O)[C@H](O)[C@@H](O)N2C[C@@H]1O (stereo partly specified),> 100,> 100,> 100,> 100,> 100,> 100,> 100,> 100,> 100,> 100,> 100
C/C(=N\NC(=S)N1CCCCC1)c1nc2ncccc2[nH]1,> 100,98.2,> 100,43.1,> 100,> 100,> 100,> 100,> 100,42.4,69.7
Cc1cc(C)n(C(=C(C(Cl)=C(Cl)Cl)[N+](=O)[O-])n2nc(C)cc2C)n1,–,6.27,12.5,6.78,13.9,7.86,7.47,4.18,8.69,23.1,14.9
